Experiments:
PC-3 [1] = test: Cytotoxicity against Homo sapiens (human) PC3 cells assessed as growth inhibition at 1 x 10^-5 mole after 48 hr by SRB assay; type: functional
MCF7 [2] = test: Cytotoxicity against Homo sapiens (human) MCF-7 cells assessed as growth inhibition at 1 x 10^-5 mole after 48 hr by SRB assay; type: functional
THP-1 [3] = test: Cytotoxicity against Homo sapiens (human) THP1 cells assessed as growth inhibition at 1 x 10^-4 mole after 48 hr by SRB assay; type: functional
COLO 205 [4] = test: Cytotoxicity against Homo sapiens (human) COLO205 cells assessed as growth inhibition at 1 x 10^-4 mole after 48 hr by SRB assay; type: functional
THP-1 [5] = test: Cytotoxicity against Homo sapiens (human) THP1 cells assessed as growth inhibition at 5 x 10^-5 mole after 48 hr by SRB assay; type: functional
PC-3 [6] = test: Cytotoxicity against Homo sapiens (human) PC3 cells assessed as growth inhibition at 5 x 10^-5 mole after 48 hr by SRB assay; type: functional
COLO 205 [7] = test: Cytotoxicity against Homo sapiens (human) COLO205 cells assessed as growth inhibition at 5 x 10^-5 mole after 48 hr by SRB assay; type: functional
A549 [8] = test: Cytotoxicity against Homo sapiens (human) A549 cells assessed as growth inhibition at 5 x 10^-5 mole after 48 hr by SRB assay; type: functional
PC-3 [9] = test: Cytotoxicity against Homo sapiens (human) PC3 cells assessed as growth inhibition at 1 x 10^-4 mole after 48 hr by SRB assay; type: functional
A549 [10] = test: Cytotoxicity against Homo sapiens (human) A549 cells assessed as growth inhibition at 1 x 10^-4 mole after 48 hr by SRB assay; type: functional
IGROV-1 [11] = test: Cytotoxicity against Homo sapiens (human) IGROV1 cells assessed as growth inhibition at 5 x 10^-5 mole after 48 hr by SRB assay; type: functional
IGROV-1 [12] = test: Cytotoxicity against Homo sapiens (human) IGROV1 cells assessed as growth inhibition at 1 x 10^-4 mole after 48 hr by SRB assay; type: functional
MCF7 [13] = test: Cytotoxicity against Homo sapiens (human) MCF-7 cells assessed as growth inhibition at 5 x 10^-5 mole after 48 hr by SRB assay; type: functional
MCF7 [14] = test: Cytotoxicity against Homo sapiens (human) MCF-7 cells assessed as growth inhibition at 1 x 10^-4 mole after 48 hr by SRB assay; type: functional
COLO 205 [15] = test: Cytotoxicity against Homo sapiens (human) COLO205 cells after 48 hr by SRB assay; type: functional, cell-based; conditions: COLO 205, 48 h, pooled result: one value given for 7 cell lines, strains, targets or settings
SF-295 [16] = test: Cytotoxicity against Homo sapiens (human) SF295 cells assessed as growth inhibition at 5 x 10^-5 mole after 48 hr by SRB assay; type: functional
SF-295 [17] = test: Cytotoxicity against Homo sapiens (human) SF295 cells assessed as growth inhibition at 1 x 10^-4 mole after 48 hr by SRB assay; type: functional
A549 [18] = test: Cytotoxicity against Homo sapiens (human) A549 cells assessed as growth inhibition at 1 x 10^-5 mole after 48 hr by SRB assay; type: functional
IGROV-1 [19] = test: Cytotoxicity against Homo sapiens (human) IGROV1 cells assessed as growth inhibition at 1 x 10^-5 mole after 48 hr by SRB assay; type: functional
COLO 205 [20] = test: Cytotoxicity against Homo sapiens (human) COLO205 cells assessed as growth inhibition at 2 x 10^-5 mole after 48 hr by SRB assay; type: functional
THP-1 [21] = test: Cytotoxicity against Homo sapiens (human) THP1 cells assessed as growth inhibition at 2 x 10^-5 mole after 48 hr by SRB assay; type: functional
SF-295 [22] = test: Cytotoxicity against Homo sapiens (human) SF295 cells assessed as growth inhibition at 1 x 10^-6 mole after 48 hr by SRB assay; type: functional
MCF7 [23] = test: Cytotoxicity against Homo sapiens (human) MCF-7 cells assessed as growth inhibition at 1 x 10^-6 mole after 48 hr by SRB assay; type: functional

Structure (SMILES) | growth inhibition (GI) (THP-1 [3]) | growth inhibition (GI) (COLO 205 [4]) | growth inhibition (GI) (THP-1 [5]) | growth inhibition (GI) (PC-3 [6]) | growth inhibition (GI) (COLO 205 [7]) | growth inhibition (GI) (A549 [8]) | growth inhibition (GI) (PC-3 [9]) | growth inhibition (GI) (A549 [10]) | growth inhibition (GI) (IGROV-1 [11]) | growth inhibition (GI) (IGROV-1 [12]) | growth inhibition (GI) (MCF7 [13]) | growth inhibition (GI) (MCF7 [14]) | IC50 (COLO 205 [15]) | also measured
CO[C@@]12[C@H](COC(N)=O)C3=C(C(=O)C(C)=C(N)C3=O)N1C[C@@H]1N[C@@H]12 [MITOMYCIN] |  |  |  |  |  |  |  |  |  |  |  |  |  | growth inhibition (GI) (PC-3 [1]): 58%; growth inhibition (GI) (MCF7 [2]): 65%
COc1ccc(OC)c(/C=C(\C(=O)O)c2ccccc2)c1 | 4% | 0% | 0% | 0% | 0% | 0% | 0% | 10% |  |  |  |  |  | 
O=C(O)/C(=C\c1ccccc1[N+](=O)[O-])c1ccccc1 | 0% | 60% | 0% | 10% | 32% | 15% | 22% | 25% |  |  |  |  |  | 
O=C(O)/C(=C\c1ccccc1Cl)c1ccccc1 |  |  |  | 36% |  | 12% | 52% | 12% | 32% | 42% | 5% | 10% |  | 
COc1cc(OC)c(OC)cc1/C=C(\C(=O)O)c1ccccc1 | 21% | 16% | 0% | 4% | 5% | 0% | 28% | 20% |  |  |  |  |  | 
COc1ccc(/C=C(\C(=O)O)c2ccccc2)c(OC)c1OC | 0% | 0% | 0% | 0% | 0% | 0% | 7% | 0% |  |  |  |  |  | 
CC(=O)Oc1ccccc1/C=C(\C(=O)O)c1ccccc1 |  |  |  | 53% |  | 10% | 60% | 10% | 6% | 18% | 6% | 20% |  | 
COc1cccc(/C=C(\C(=O)O)c2ccccc2)c1OC |  |  |  | 2% |  | 60% | 4% | 89% | 6% | 11% | 25% | 52% | 3.9 µM | growth inhibition (GI) (SF-295 [16]): 8%; growth inhibition (GI) (SF-295 [17]): 24%
O=C(O)/C(=C\c1ccc2c(c1)OCO2)c1ccccc1 |  |  |  | 11% |  | 0% | 39% | 45% | 0% | 32% | 32% | 39% |  | growth inhibition (GI) (SF-295 [16]): 15%; growth inhibition (GI) (SF-295 [17]): 38%
CC(=O)O[C@H]1C(=O)[C@@]2(C)[C@H]([C@H](OC(=O)c3ccccc3)[C@]3(O)C[C@H](OC(=O)[C@H](O)[C@@H](NC(=O)c4ccccc4)c4ccccc4)C(C)=C1C3(C)C)[C@]1(OC(C)=O)CO[C@@H]1C[C@@H]2O [PACLITAXEL] |  |  |  |  |  |  |  |  |  |  |  |  |  | growth inhibition (GI) (A549 [18]): 67%; growth inhibition (GI) (IGROV-1 [19]): 66%
O=C(O)/C(=C\c1cccc(Cl)c1)c1ccccc1 |  |  |  | 30% |  | 32% | 68% | 32% | 0% | 38% | 0% | 0% |  | 
COc1cc(/C=C(\C(=O)O)c2ccccc2)cc(OC)c1OC |  |  |  | 10% |  | 21% | 22% | 65% | 0% | 1% | 54% | 63% | 88 µM | growth inhibition (GI) (SF-295 [16]): 13%; growth inhibition (GI) (SF-295 [17]): 25%
O=C(O)/C(=C\c1ccc(Cl)cc1)c1ccccc1 |  |  |  | 14% |  | 61% | 42% | 61% | 0% | 0% | 10% | 22% | 34 µM | 
O=c1[nH]cc(F)c(=O)[nH]1 [FLUOROURACIL] |  |  |  |  |  |  |  |  |  |  |  |  |  | growth inhibition (GI) (COLO 205 [20]): 74%; growth inhibition (GI) (THP-1 [21]): 69%
O=C(O)/C(=C\c1cccc2ccccc12)c1ccccc1 | 22% | 70% | 0% | 26% | 51% | 0% | 35% | 0% |  |  |  |  | > 100 µM | 
COc1ccc(/C=C(\C(=O)O)c2ccccc2)cc1O |  |  |  | 12% |  | 0% | 23% | 20% | 8% | 17% | 14% | 24% |  | growth inhibition (GI) (SF-295 [16]): 0%; growth inhibition (GI) (SF-295 [17]): 12%
O=C(O)/C(=C\c1cccc(O)c1O)c1ccccc1 |  |  |  | 31% |  | 52% | 74% | 52% | 15% | 31% | 14% | 26% | 96.5 µM | 
O=C(O)/C(=C\c1ccccc1)c1ccccc1 |  |  |  | 0% |  | 52% | 4% | 54% | 0% | 0% | 29% | 41% | 85.4 µM | growth inhibition (GI) (SF-295 [16]): 14%; growth inhibition (GI) (SF-295 [17]): 25%
O=C(O)/C(=C\C=C\c1ccccc1)c1ccccc1 | 35% | 44% | 8% | 0% | 15% | 10% | 9% | 43% |  |  |  |  |  | 
COc1cccc2c1C(=O)c1c(O)c3c(c(O)c1C2=O)C[C@@](O)(C(=O)CO)C[C@@H]3O[C@H]1C[C@H](N)[C@H](O)[C@H](C)O1.Cl [DOXORUBICIN HYDROCHLORIDE] |  |  |  |  |  |  |  |  |  |  |  |  |  | growth inhibition (GI) (SF-295 [22]): 87%; growth inhibition (GI) (MCF7 [23]): 77%
